Activity calls are given as the source filed them.
Columns and labels:
BJ [1] = experiment: cells; assay type: functional, cell-based; conditions: Homo sapiens
BJ [2] = experiment: BJ-TERT-LT-ST fibroblast viability loss – cell-based, RAS-independent, luminescence, dose response (AID 1935); assay type: functional; conditions: Homo sapiens;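 also: BJ fibroblasts immortalized with TERT plus LT and ST oncogenes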
[3] = DRD fibroblast viability loss – cell-based, non-viral oncogenic, luminescence, dose response (AID 1934); assay type: functional; conditions: Homo sapiens
BJ [4] = experiment: BJ-TERT fibroblast viability loss – cell-based, RAS-independent, luminescence, dose response (AID 1933); assay type: functional; conditions: Homo sapiens
Cytochrome P450 2C19 = Cytochrome P450 2C19 (Homo sapiens, UniProt P33261); experiment: Cytochrome panel assay with activity outcomes. Panel member name: p450-cyp2c19 Compounds with AC50 equal or less than 10 uM are considered active; assay type: functional; conditions: read-out: AC50
Sequence of Cytochrome P450 2C19 (P33261 whole entry): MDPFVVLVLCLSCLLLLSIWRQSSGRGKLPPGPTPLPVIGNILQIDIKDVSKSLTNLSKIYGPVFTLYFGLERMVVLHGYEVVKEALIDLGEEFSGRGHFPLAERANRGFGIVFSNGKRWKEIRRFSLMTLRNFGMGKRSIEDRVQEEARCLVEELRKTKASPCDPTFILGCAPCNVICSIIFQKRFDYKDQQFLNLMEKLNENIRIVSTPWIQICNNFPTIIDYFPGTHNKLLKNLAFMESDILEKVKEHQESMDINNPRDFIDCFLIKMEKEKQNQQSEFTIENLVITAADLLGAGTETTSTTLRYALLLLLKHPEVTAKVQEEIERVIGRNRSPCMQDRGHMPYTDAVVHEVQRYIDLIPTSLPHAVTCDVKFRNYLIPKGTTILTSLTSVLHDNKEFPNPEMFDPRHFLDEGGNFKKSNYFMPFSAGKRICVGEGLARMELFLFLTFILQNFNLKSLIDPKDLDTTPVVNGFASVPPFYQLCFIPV

Cytochrome P450 2D6 = Cytochrome P450 2D6 (Homo sapiens, UniProt P10635);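 also: CYP2D6 member of a cytochrome P450 panel assay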
Sequence of Cytochrome P450 2D6 (P10635 whole entry): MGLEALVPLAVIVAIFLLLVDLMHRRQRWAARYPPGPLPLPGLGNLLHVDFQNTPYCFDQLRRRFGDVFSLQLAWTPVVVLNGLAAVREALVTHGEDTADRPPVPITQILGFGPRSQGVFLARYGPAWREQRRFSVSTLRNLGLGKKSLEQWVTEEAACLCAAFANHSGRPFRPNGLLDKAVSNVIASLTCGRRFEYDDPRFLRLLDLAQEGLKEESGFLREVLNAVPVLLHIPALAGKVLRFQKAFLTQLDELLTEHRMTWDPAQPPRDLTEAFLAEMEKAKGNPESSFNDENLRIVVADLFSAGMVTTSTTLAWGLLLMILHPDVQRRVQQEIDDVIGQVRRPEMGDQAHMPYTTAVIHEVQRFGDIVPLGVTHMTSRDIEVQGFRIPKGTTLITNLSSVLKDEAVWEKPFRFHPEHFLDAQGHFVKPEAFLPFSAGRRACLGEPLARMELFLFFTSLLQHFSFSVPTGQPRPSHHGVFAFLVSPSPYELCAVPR

Cytochrome P450 2C9 = Cytochrome P450 2C9 (Homo sapiens, UniProt P11712)
Sequence of Cytochrome P450 2C9 (P11712 whole entry): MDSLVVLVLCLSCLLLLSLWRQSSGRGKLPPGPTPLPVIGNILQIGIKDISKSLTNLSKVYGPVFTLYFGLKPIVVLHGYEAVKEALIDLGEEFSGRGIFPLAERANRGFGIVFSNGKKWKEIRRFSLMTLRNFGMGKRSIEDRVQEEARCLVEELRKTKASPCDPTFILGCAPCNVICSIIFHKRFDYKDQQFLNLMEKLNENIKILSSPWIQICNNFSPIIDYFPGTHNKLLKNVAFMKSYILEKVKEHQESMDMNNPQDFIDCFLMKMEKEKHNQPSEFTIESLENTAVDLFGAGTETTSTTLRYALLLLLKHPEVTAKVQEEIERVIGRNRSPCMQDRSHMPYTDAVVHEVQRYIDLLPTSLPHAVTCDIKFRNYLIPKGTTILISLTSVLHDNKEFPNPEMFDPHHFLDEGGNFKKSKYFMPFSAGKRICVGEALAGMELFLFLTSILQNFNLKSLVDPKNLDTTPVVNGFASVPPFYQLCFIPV

H9c2 = experiment: cells; assay type: functional, cell-based; conditions: Rattus norvegicus, H9c2, Myocardium;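 also: confirmatory concentration-response retest of ultra-high-throughput screening hits for modulation of myocardial damage; cell death induced by hydrogen peroxide oxidative stress; compound pretreatment for 60 min then peroxide exposure for 2 h; potency is for protecting the cells against peroxide damage rather than for killing them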
[5] = molecular target: T1, Rac GTPase-activating protein 1 (Homo sapiens, UniProt Q9H0H5); experiment: blockers of MgcRacGAP-driven Rac1 GTP hydrolysis – biochemical, ADP Hunter fluorescence, primary and confirmatory, confirmation (AID 624330); assay type: functional
T1 sequence (Q9H0H5 whole entry): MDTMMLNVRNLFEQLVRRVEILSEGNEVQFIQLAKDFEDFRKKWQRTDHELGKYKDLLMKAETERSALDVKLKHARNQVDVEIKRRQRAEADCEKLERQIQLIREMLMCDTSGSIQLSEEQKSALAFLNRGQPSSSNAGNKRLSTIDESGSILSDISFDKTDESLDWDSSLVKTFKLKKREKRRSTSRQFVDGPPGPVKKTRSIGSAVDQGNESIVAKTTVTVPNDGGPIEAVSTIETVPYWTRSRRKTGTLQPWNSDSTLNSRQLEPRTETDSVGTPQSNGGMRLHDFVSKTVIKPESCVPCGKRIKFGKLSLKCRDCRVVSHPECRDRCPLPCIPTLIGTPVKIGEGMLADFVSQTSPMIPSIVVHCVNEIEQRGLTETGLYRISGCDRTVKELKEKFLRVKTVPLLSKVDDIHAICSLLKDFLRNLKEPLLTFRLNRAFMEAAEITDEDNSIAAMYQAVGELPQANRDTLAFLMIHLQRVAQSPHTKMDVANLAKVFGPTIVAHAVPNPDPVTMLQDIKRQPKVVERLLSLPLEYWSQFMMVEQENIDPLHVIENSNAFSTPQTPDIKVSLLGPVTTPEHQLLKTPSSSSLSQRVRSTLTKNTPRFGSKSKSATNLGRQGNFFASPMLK

Streptococcus = experiment: GAS UMAA2166 growth inhibition – luminescence, BacTiterGlo, counter-screen for streptokinase expression inhibitor project, dose response (AID 1915); assay type: functional, organism-based;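 also: potency for reduction of bacterial viability or growth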
[6] = tested on: Streptococcus sp. 'group A'; experiment: Streptococcus pyogenes SK(-)GAS viability under kanamycin – luminescence, BacTiterGlo, confirmation, counter-screen for streptokinase expression inhibitor project, dose response (AID 1900); assay type: functional, organism-based
Streptokinase A = molecular target: T2, Streptokinase A (Streptococcus pyogenes serotype M1, UniProt P10520); experiment: viability-normalized secreted streptokinase activity reduction – plasminogen activation absorbance, OD405, dose response (AID 1914); assay type: functional, Streptococcus pyogenes M1 GAS;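 also: secreted streptokinase activity via plasminogen activation per viability signal from cell pellet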
T2 sequence (P10520 whole entry): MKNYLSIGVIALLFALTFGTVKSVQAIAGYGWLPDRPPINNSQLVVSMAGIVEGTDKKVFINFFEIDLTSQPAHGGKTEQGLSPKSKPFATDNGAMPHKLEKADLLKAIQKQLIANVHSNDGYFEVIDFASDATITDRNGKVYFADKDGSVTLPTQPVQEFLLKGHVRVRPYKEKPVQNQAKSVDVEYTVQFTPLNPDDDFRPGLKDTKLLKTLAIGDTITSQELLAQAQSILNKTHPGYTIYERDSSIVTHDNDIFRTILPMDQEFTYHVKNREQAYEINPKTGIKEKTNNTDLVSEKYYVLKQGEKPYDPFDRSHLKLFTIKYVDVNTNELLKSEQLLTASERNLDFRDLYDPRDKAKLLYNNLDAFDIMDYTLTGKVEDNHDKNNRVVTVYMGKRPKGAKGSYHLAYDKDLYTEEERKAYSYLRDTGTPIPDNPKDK

Nonstructural protein 1 = Nonstructural protein 1 (Influenza A virus, UniProt Q194T2); assay type: functional, Influenza A virus (A/California/07/2009(H1N1))
Sequence of Nonstructural protein 1 (Q194T2 whole entry): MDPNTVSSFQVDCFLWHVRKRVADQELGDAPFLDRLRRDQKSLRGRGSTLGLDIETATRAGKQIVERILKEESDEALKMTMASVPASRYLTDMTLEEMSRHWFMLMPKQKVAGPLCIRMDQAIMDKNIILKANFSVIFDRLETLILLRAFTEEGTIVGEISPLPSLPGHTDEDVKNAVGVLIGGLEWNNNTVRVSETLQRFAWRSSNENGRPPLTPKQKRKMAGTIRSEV

[7] = reduction of Shn3 3'UTR-driven luciferase in osteoblasts – cell-based, Clone20 osteoblasts, firefly luciferase, cherry-picked, dose response (AID 624132); assay type: functional;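 also: firefly luciferase luminescence from reporter carrying the Shn3 3'UTR in osteoblasts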
[8] = non-specific 3'UTR reporter inhibition in Clone20-Shn3RL – cell-based, Renilla luciferase, cherry-picked, counter-screen for Shn3 inhibitor project, dose response (AID 624133); assay type: functional
INS1 = experiment: INS-1E survival protection against cytokine death – cell-based, luminescence, retest, dose response (AID 449756); assay type: functional; conditions: Rattus norvegicus;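 also: cell death triggered by IL-1 beta plus TNF-alpha plus IFN-gamma mixture; protective hits raise ATP signal compared with cytokine alone wells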
[9] = Luminescence Cell-Based Dose Response HTS to Identify Inhibitors of 5'UTR Stem-Loop Driven Prion Protein mRNA Translation in H4 Neuroglioblastoma Cells. [Related pubchem assays: 1827 (Project Summary), 1813 (Primary HTS)]; assay type: functional
[10] = alpha-synuclein stem-loop luciferase translation blockers – H4 neuroglioma cells, luminescence, confirmation (AID 1988); assay type: functional, cell-based
[11] = Luminescence Cell-Based Dose Retest to Confirm Inhibitors of Cancer Stem Cells. [Related pubchem assays (depositor defined):AID2717, AID2721]; assay type: functional; conditions: Homo sapiens
[12] = luciferase reporter signal suppression in cells – H4 neuroglioma cells, luminescence, dose response (AID 1990); assay type: functional, cell-based
[13] = loss of viability in HepG2 cells – cell-based, CellTiter-Glo, cherry-picked, cytotoxicity control for Shn3 inhibitor project, dose response (AID 624134); assay type: functional
Vero = experiment: cells; assay type: functional; conditions: Chlorocebus sabaeus
[14] = Luminescence Cell-Based Dose Response HTS to Identify Activators of Luciferase Translation or Activity in H4 […] Cells. [Related pubchem assays: 1829 (Project Summary), 1814 (Primary HTS)]; assay type: functional
H4 = experiment: Luminescence Cell-Based Dose Response HTS to Identify Activators of 5'UTR Stem-Loop Driven Prion Protein mRNA Translation in H4 Neuroglioblastoma Cells. [Related pubchem assays: 1829 (Project Summary), 1814 (Primary HTS)]; assay type: functional; conditions: Homo sapiens
Cytochrome P450 3A4 = Cytochrome P450 3A4 (Homo sapiens, UniProt P08684);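 also: CYP3A4 tested as one member of a cytochrome P450 panel screen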
Sequence of Cytochrome P450 3A4 (P08684 whole entry, the tested form may be a part): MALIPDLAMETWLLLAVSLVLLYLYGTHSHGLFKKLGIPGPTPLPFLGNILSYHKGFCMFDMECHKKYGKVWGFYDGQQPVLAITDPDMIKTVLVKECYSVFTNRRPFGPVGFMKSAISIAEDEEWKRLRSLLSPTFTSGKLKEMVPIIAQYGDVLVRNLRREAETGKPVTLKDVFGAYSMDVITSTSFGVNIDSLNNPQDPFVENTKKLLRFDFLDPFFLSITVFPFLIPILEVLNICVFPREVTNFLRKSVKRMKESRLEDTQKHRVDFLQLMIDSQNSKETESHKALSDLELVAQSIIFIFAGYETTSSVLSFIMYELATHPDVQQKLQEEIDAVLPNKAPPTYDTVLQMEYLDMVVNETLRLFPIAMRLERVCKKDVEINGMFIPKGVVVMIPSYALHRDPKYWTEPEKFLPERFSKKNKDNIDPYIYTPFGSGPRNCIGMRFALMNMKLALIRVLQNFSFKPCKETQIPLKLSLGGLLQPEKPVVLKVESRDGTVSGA

[15] = molecular target: T3, RNA-binding protein pos-1 (Caenorhabditis elegans, UniProt G5EF15); experiment: disruptors of C. elegans POS-1 RNA interaction – biochemical, fluorescence polarization, dose response (AID 1964);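 also: purified POS-1 fused to maltose binding protein made in E. coli; potency of compounds blocking POS-1 binding to fluorescent RNA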
T3 sequence (G5EF15 whole entry): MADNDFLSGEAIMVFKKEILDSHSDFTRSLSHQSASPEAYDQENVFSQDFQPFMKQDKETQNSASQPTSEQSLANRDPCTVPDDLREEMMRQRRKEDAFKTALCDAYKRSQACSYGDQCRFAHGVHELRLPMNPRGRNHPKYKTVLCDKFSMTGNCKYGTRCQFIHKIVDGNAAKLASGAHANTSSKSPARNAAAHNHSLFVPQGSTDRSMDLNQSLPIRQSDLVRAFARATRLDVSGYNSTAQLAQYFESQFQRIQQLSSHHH

[16] = molecular target: T4, Zinc finger protein mex-5 (Caenorhabditis elegans, UniProt Q9XUB2); experiment: potency of MEX-5 RNA-binding blockers – biochemical, C. elegans, fluorescence polarization, dose response (AID 1960)
T4 sequence (Q9XUB2 whole entry): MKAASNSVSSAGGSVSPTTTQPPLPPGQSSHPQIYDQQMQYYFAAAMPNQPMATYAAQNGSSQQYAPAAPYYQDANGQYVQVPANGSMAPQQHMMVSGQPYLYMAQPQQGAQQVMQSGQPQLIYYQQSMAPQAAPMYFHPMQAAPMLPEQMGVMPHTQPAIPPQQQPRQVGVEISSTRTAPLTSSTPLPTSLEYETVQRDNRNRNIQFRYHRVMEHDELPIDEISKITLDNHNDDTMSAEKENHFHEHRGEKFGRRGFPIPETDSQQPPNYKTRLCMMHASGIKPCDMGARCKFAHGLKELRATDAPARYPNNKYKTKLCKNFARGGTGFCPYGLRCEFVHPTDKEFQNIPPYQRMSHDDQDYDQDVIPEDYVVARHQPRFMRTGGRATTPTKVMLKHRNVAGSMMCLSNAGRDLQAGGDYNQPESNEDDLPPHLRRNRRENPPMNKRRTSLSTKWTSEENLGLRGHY

COc1cc(OC)cc(C(=O)Nc2ccc(N3CCN(C(=O)c4cccs4)CC3)cc2)c1
EC50 (BJ [1]): 61.2 µM (active) | EC50 (BJ [2]): > 150 µM (inconclusive) | EC50 [3]: 19.5 µM (active) | EC50 (BJ [4]): 14.9 µM (active)

COc1cc(/C=C(\C#N)c2nc3c(s2)CC(C)CC3)ccc1O (stereo not drawn)
AC50 (Cytochrome P450 2C19): 39.8 µM (inconclusive) | AC50 (Cytochrome P450 2D6): 28.2 µM (inconclusive) | AC50 (Cytochrome P450 2C9): inconclusive

COc1cccc(NC(=O)c2oc3ccc(S(=O)(=O)N4CCOCC4)cc3c2C)c1
IC50 (H9c2): > 79 µM (inactive)

CCn1c2ccccc2c2nc3cc(OC)c(OC)cc3nc21
IC50 (H9c2): > 79 µM (inactive)

COc1cc(/C=N/NC(=O)CN2CC(c3ccccc3)CC2=O)ccc1OC(=O)N(C)C (stereo not drawn)
AC50 (Cytochrome P450 2C19): 22.4 µM (inconclusive) | AC50 (Cytochrome P450 2C9): inconclusive

COc1ccc(NCc2cc3ccccc3nc2O)cc1
IC50 [5]: 94.7 µM (active) | IC50 (H9c2): > 79 µM (inactive)

Oc1nc(N2CCN(c3ccccc3)CC2)nc2c1CCCC2
IC50 (H9c2): > 79 µM (inactive)

O=C(NN/C=C1\C(=O)N(c2ccccc2Cl)C(=O)c2ccccc21)C1COc2ccccc2O1 (stereo not drawn)
EC50 (Streptococcus): 7.4 µM (active) | EC50 [6]: 6.64 µM (active) | EC50 (Streptokinase A): > 150 µM (not active) | IC50 (H9c2): 17.2 µM (active)

COc1ccccc1C(CCNCc1ccc(N(C)C)cc1)c1ccc(OC(C)C)cc1 (stereo not drawn)
IC50 (Nonstructural protein 1): 8.29 µM (active) | AC50 [7]: 6.48 µM (active) | AC50 [8]: 12 µM (active) | AC50 (INS1): 7.11 µM (active) | EC50 [9]: > 120 µM (not active) | EC50 [10]: 7.66 µM (active) | AC50 [11]: 5.31 µM (active) | EC50 [12]: > 60 µM (not active) | AC50 [13]: 12.5 µM (active)

CCOC(=O)c1oc2ccc(S(=O)(=O)n3nc(-c4ccc(Cl)cc4)cc3N)cc2c1C
CC50 (Vero): > 25 µM (active)

CC(=O)c1ccc(Oc2ncnc3sccc23)cc1
EC50 [14]: 9.03 µM (active) | EC50 (H4): 33.2 µM (active)

CC(OC(=O)c1cc(-c2cccnc2)nc2ccccc12)C(=O)Nc1ccc2ccccc2c1 (stereo not drawn)
IC50 (H9c2): > 79 µM (inactive)

Cc1ccc(OCCOC(=O)CCc2nc(O)c3ccccc3n2)cc1
IC50 (H9c2): 10.6 µM (active)

Cn1c2ccccc2c2cc(C(=O)N3CCOCC3)sc21
AC50 (Cytochrome P450 2C19): 39.8 µM (inconclusive) | AC50 (Cytochrome P450 3A4): 28.2 µM (inconclusive) | AC50 (Cytochrome P450 2C9): inconclusive

O=C(Nc1nnc(SCc2c(Cl)cccc2Cl)s1)C1CCCO1 (stereo not drawn)
AC50 (Cytochrome P450 2C19): 14.1 µM (inconclusive) | AC50 (Cytochrome P450 2C9): inconclusive

O=C(CC(C(=O)c1ccccc1)c1ccccc1)c1ccccc1 (stereo not drawn)
IC50 (H9c2): > 79 µM (inactive)

O=C(N/N=C/c1ccc(Cl)cc1)c1[nH]nc2c1CCCC2
EC50 (BJ [1]): 39.2 µM (active) | CC50 (Vero): 2.59 µM (active) | EC50 (BJ [2]): 0.669 µM (active) | EC50 [9]: > 120 µM (not active) | EC50 [3]: 0.657 µM (active) | EC50 [12]: 8.55 µM (inconclusive)

Cc1ccc(C(=O)NC(=S)Nc2ccc3c(c2)OCCO3)c(C)c1
AC50 (Cytochrome P450 2C19): 17.8 µM (inconclusive) | AC50 (Cytochrome P450 2C9): inconclusive

CCCCCCCCCCCCCCCC(=O)NC[C@@H](COP(=O)([O-])OCC[N+](C)(C)C)OCC
AC50 (Cytochrome P450 2C19): 39.8 µM (inconclusive) | AC50 (Cytochrome P450 2D6): 31.6 µM (inconclusive) | AC50 (Cytochrome P450 2C9): inconclusive

COc1ccc(-c2nc(C#N)c(NCc3ccco3)o2)cc1
EC50 [14]: 31.9 µM (active) | EC50 (H4): 7.92 µM (active)

Cc1ccc(-n2nc(C)c(/C=N/NC(=O)c3ccc(O)cc3O)c2O)cc1
IC50 (Nonstructural protein 1): 4.44 µM (active) | EC50 [15]: 76.9 µM (active) | EC50 [16]: 22 µM (active)

COCCCNCCCCOc1c(Cl)cc(C)cc1Br.O=C(O)C(=O)O
IC50 [5]: 64.1 µM (active) | AC50 (Cytochrome P450 2C9): inconclusive

OC1CCN(c2c3c(nc4cc(-c5cccc(F)c5)nn24)CCCC3)CC1
IC50 (H9c2): > 79 µM (inactive)

O=[N+]([O-])c1ccc(Cl)c(/C=N/N2CCN(Cc3ccccc3)CC2)c1
AC50 (Cytochrome P450 2D6): 11.2 µM (inconclusive) | AC50 (Cytochrome P450 2C9): inconclusive

O=S(=O)(c1ccccc1)N1CCC2(CC1)CN(c1ccncc1)C2
AC50 (Cytochrome P450 3A4): 39.8 µM (inconclusive) | AC50 (Cytochrome P450 2C9): inconclusive

CCOc1ccccc1N/C=C(\C#N)c1nc2ccccc2n1C
EC50 [14]: > 120 µM (not active) | EC50 (H4): > 120 µM (not active)
